Patent US10450309B2, “Aryl sulfonamides as BLT1 antagonists” (Merck Sharp & Dohme Corp., priority 2015, dated 2019)

Target: T1, human BLT1 receptor (Homo sapiens, UniProt Q15722)
T1 construct: expressed in transfected cells; host or cells: HEK293
Assay: BLT-1 cAMP Assay
Type: cell-based
Details: antagonist mode; HEK293 cells recombinantly expressing human BLT1; forskolin 4 μM and LTB4 2 nM
Procedure: The ability of compounds to antagonize the human BLT1 receptor was determined using a kit to measure changes in intracellular cyclic AMP levels (cAMP dynamic assay kit, Cisbio Cat. No. 62AM4PEC). HEK293 cells recombinantly expressing human BLT1, previously frozen in Recovery Medium (Life Technologies, Cat. No. 12648-010) were thawed and diluted into assay medium (HBSS (Hyclone SH 30268.01), 20 mM HEPES (Gibco 15630-106), 800 μM IBMX (Sigma 15879), 0.1% DTPA BSA (Perkin Elmer CR84-100)). The cell suspension was centrifuged at 200×g for 10 min and then resuspended in fresh assay medium to a density of 2.5×10^5 cells/mL. A Labcyte Echo 550 acoustic dispenser was used to transfer 25 nL of test compound dissolved in DMSO into the wells of a dry 384-well plate (Greiner 784075). All subsequent liquid additions were performed using a BIORAPTR (FRD; Beckman Coulter). Next, 5 μL of cell suspension was added and incubated for 20 min. at 37° C. and 5% CO2 in a humidified plastic tray. To test for agonist activity 5 μL of assay buffer containing forskolin (Sigma F-6886. 4 μM for BLT1) was added and incubated for 30 minutes at 37° C. and 5% CO2 in a humidified plastic tray. To test for antagonist activity 5 μL of assay buffer containing forskolin (Sigma F-6886. 4 μM for BLT1) and either LTB4 (Sigma Aldrich L0517; 2 nM BLT1) was added and incubated for 30 minutes at 37° C. and 5% CO2 in a humidified plastic tray.
The levels of cAMP were detected using the CisBio kit following the manufacturer's instructions: cAMP-d2 vial was reconstituted with distilled water and then diluted accordingly with conjugate & lysis buffer. 5 μL of cAMP-d2 working solution was added to all of the wells of the assay plate. cAMP-Cryptate vial was reconstituted with distilled water and then diluted accordingly with conjugate & lysis buffer. 5 μL of cAMP-Cryptate working solution were added to the assay plate. The assay plate was shaken for 3 minutes and incubated at room temperature for 45 minutes, then read on Perkin Elmer Envision. cAMP standard curve and fit data were plotted using a 4 parameter dose response curve fitting algorithm to fit curve. A 4-parameter curve fit (Max, min, log EC50 and slope) was used to transform fluorescent 665 nm/615 nm ratio signal to cAMP concentration. After normalization to treated and untreated controls, the percent effect of signal at each compound concentration was calculated. The plot of percent effect versus the log of compound concentration was fit with a 4-parameter concentration response equation to calculate EC50 values. Compound concentrations tested were 10 000, 3 333, 1 111, 370.4, 123.4, 41.2, 13.7, 4.6, 1.5 and 0.5 nM with 0.25% residual DMSO.

T1 sequence (Q15722 whole entry): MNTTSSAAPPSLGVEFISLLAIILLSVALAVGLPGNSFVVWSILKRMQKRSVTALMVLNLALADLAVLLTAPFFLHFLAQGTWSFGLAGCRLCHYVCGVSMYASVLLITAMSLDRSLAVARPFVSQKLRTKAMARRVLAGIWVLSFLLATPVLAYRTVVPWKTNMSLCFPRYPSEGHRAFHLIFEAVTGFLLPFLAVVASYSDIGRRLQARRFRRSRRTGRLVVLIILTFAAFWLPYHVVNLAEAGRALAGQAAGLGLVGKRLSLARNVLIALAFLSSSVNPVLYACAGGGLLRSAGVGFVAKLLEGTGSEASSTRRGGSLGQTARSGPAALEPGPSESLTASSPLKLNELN

EC50 [nM]	Molecule
16	O=S(=O)(Nc1ccccc1-c1ccc2c(c1)OC[C@@H](Cc1ccc(-c3nccs3)cn1)[C@@H]2O)C(F)(F)F (single isomer, unassigned) [Example 11, 1,1,1-Trifluoro-N-(2-((3,4-trans)-4-hydroxy-3-((5-(thiazol-2-yl)pyridin-2-yl)methyl)chroman-7-yl)phenyl)methanesulfonamide]
107	O=S(=O)(Nc1ccccc1-c1ccc2c(c1)OC[C@@H](Cc1ccc(-c3cscn3)cn1)[C@@H]2O)C(F)(F)F (single isomer, unassigned) [Example 9, 1,1,1-Trifluoro-N-(2-((3,4-trans)-4-hydroxy-3-((5-(thiazol-4-yl)pyridin-2-yl)methyl)chroman-7-yl)phenyl)methanesulfonamide]
20	O=S(=O)(Nc1ccccc1-c1ccc2c(c1)OC[C@@H](Cc1ccc(-c3nccs3)cn1)[C@@H]2O)C(F)(F)F (single isomer, unassigned) [Example 10, 1,1,1-Trifluoro-N-(2-((3,4-trans)-4-hydroxy-3-((5-(thiazol-2-yl)pyridin-2-yl)methyl)chroman-7-yl)phenyl)methanesulfonamide]
24	O=S(=O)(Nc1ccc(F)cc1-c1ccc2c(c1)OC[C@H](Cc1ccc(-c3cncs3)cn1)[C@H]2O)C(F)(F)F (racemic) [Example 8, 1,1,1-trifluoro-N-{4-fluoro-2-[(rac-trans) 4-hydroxy-3-{[5-(1,3-thiazol-5-yl)pyridin-2-yl]methyl}-3,4-dihydro-2H-chromen-7-yl]phenyl}methanesulfonamide]
5	Cn1cc(-c2ccc(C[C@H]3COc4cc(-c5ccccc5NS(=O)(=O)C(F)(F)F)ccc4[C@@H]3O)nc2)cn1 (single isomer, unassigned) [Example 3, 1,1,1-Trifluoro-N-(2-((3S,4R or 3R,4S)-4-hydroxy-3-((5-(1-methyl-1H-pyrazol-4-yl)pyridin-2-yl)methyl)chroman-7-yl)phenyl)methanesulfonamide]
4	O=S(=O)(Nc1ccc(F)cc1-c1ccc2c(c1)OC[C@H](Cc1ccc(-c3cncs3)cn1)[C@H]2O)C(F)(F)F (single isomer, unassigned) [Example 13, 1,1,1-trifluoro-N-{4-fluoro-2-[(3S,4R or 3R,4S)-4-hydroxy-3-{[5-(1,3-thiazol-5-yl)pyridin-2-yl]methyl}-3,4-dihydro-2H-chromen-7-yl]phenyl}methane-sulfonamide]
4	1,1,1-Trifluoro-N-(2-((3S,4R or 3R,4S)-4-hydroxy-3-((5-(5-methylthiazol-2-yl)pyridin-2-yl)methyl)chroman-7-yl)phenyl)methanesulfonamide [Example 7]
8	O=S(=O)(Nc1ccccc1-c1ccc2c(c1)OC[C@H](Cc1ccc(-c3cncs3)cn1)[C@H]2O)C(F)(F)F (single isomer, unassigned) [Example 2, 1,1,1-Trifluoro-N-(2-((3S,4R or 3R,4S)-4-hydroxy-3-((5-(thiazol-5-yl)pyridin-2-yl)methyl)chroman-7-yl)phenyl)methanesulfonamide]
4	O=S(=O)(Nc1ccccc1-c1ccc2c(c1)OC[C@@H](Cc1ccc(-c3cscn3)cn1)[C@@H]2O)C(F)(F)F (single isomer, unassigned) [Example 12, 1,1,1-Trifluoro-N-(2-((3,4-trans)-4-hydroxy-3-((5-(thiazol-4-yl)pyridin-2-yl)methyl)chroman-7-yl)phenyl)methanesulfonamide]
82	O=S(=O)(Nc1ccccc1-c1ccc2c(c1)OC[C@@H](Cc1ccc(-c3cncs3)cn1)[C@@H]2O)C(F)(F)F (single isomer, unassigned) [Example 1, 1,1,1-Trifluoro-N-(2-((3R,4S or 3S,4R)-4-hydroxy-3-((5-(thiazol-5-yl)pyridin-2-yl)methyl)chroman-7-yl)phenyl)methanesulfonamide]
140	Cn1cc(-c2ccc(C[C@@H]3COc4cc(-c5ccccc5NS(=O)(=O)C(F)(F)F)ccc4[C@H]3O)nc2)cn1 (single isomer, unassigned) [Example 4, 1,1,1-Trifluoro-N-(2-((3R,4S or 3S,4R)-4-hydroxy-3-((5-(1-methyl-1H-pyrazol-4-yl)pyridin-2-yl)methyl)chroman-7-yl)phenyl)methanesulfonamide]
187	1,1,1-Trifluoro-N-(2-((3R,4S or 3S,4R)-4-hydroxy-3-((5-(5-methylthiazol-2-yl)pyridin-2-yl)methyl)chroman-7-yl)phenyl)methanesulfonamide [Example 6]
31	O=S(=O)(Nc1ccc(F)cc1-c1ccc2c(c1)OC[C@@H](Cc1ccc(-c3cncs3)cn1)[C@@H]2O)C(F)(F)F (single isomer, unassigned) [Example 14, 1,1,1-trifluoro-N-{4-fluoro-2-[(3R,4S or 3S,4R)-4-hydroxy-3-{[5-(1,3-thiazol-5-yl)pyridin-2-yl]methyl}-3,4-dihydro-2H-chromen-7-yl]phenyl}methane-sulfonamide]
294	Cn1nccc1-c1ccc(C[C@@H]2COc3cc(-c4ccccc4NS(=O)(=O)C(F)(F)F)ccc3[C@H]2O)nc1 (single isomer, unassigned) [Example 5, 1,1,1-Trifluoro-N-(2-((3,4-trans)-4-hydroxy-3-((5-(1-methyl-1H-pyrazol-5-yl)pyridin-2-yl)methyl)chroman-7-yl)phenyl)methanesulfonamide]
